The text below walks through data of PubChem BioAssay (NCI).

Where “and” joins values, the source holds several entries; their conditions need not be identical. Equal values may be shown once.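 Following 48 hours of exposure in 96-well plates, responses at five concentrations were used to interpolate endpoints linearly. GI50: concentration for 50% inhibition of growth. At the TGI there is no net growth.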

Among the test systems are MDA-N; RXF-631 renal; DLD-1 colon; DMS 114 small cell lung; DMS 273 small cell lung; HOP-18 NSCLC; LXFL 529 NSCLC; XF 498 CNS; SN12K1 renal; P388/ADR leukemia; P388 leukemia.
Holding throughout (experiment): NCI tumour cell line growth inhibition, 48 h

For the compound `Cc1coc2c1CC1(C)C(CCC(O)C1C)C2` (stereo not drawn), the TGI in the test on MDA-N is over 100 µM.

In the case of `COC1CCC2C(NS(=O)(=O)c3ccc(C)cc3)CCCC2O1` (stereo not drawn) (tested in a mixture with another compound), the TGI in the test on RXF-631 renal is over 34.5 µM; with DLD-1 colon, over 34.5 µM; in the test with DMS 114 small cell lung, 27.9 µM; in the test with DMS 273 small cell lung, 22.8 µM.

`C/C(CC(=O)CCC(=O)Nc1cccc(C(F)(F)F)c1)=N\NC(=O)NN`: the TGI with HOP-18 NSCLC, in the test on RXF-631 renal, in the test with LXFL 529 NSCLC, in the test with DLD-1 colon, in the test on XF 498 CNS and in the test on DMS 114 small cell lung was over 100 µM in each case. Also, the TGI with DMS 273 small cell lung is over 100 µM.

For the compound `CCOC(=O)CN1C(=O)c2cccc3cc([N+](=O)[O-])cc(c23)C1=O`, the TGI with HOP-18 NSCLC is 33.8 µM; in the test on LXFL 529 NSCLC it was 3.13 µM; in the test with DLD-1 colon, 5.43 µM; with XF 498 CNS it was 4.49 µM; in the test with DMS 114 small cell lung it was 4.94 µM.

With `Cc1cc(C)nc(NS(=O)(=O)c2ccc(NC(=O)c3ccc(Cl)c4c(Nc5ccc(S(=O)(=O)Nc6nc(C)cc(C)n6)cc5)c5ccccc5nc34)cc2)n1`, the TGI was 6.53 µM in the test with HOP-18 NSCLC; over 100 µM in the test on RXF-631 renal; 61.2 µM in the test with LXFL 529 NSCLC; 84.2 µM in the test with DLD-1 colon; over 100 µM with XF 498 CNS; 8.54 µM with DMS 114 small cell lung. In the test on DMS 273 small cell lung, the TGI is over 100 µM.

As for `O=CN/C=C/c1cc(O)ccc1O`, the TGI with SN12K1 renal is 32.4 µM; in the test on P388/ADR leukemia, 4.14 µM; with P388 leukemia, 5.2 µM; in the test on HOP-18 NSCLC, over 56.8 µM; with LXFL 529 NSCLC it was 23.9 µM; in the test on DLD-1 colon, 34.4 µM. For the same compound, the values for the TGI in the test on XF 498 CNS, in the test on DMS 114 small cell lung and with DMS 273 small cell lung were 34.1 µM, 31.8 µM and over 100 µM, respectively.

Regarding `O=C1/C(=C/c2ccccc2)CN(C(=O)C(Cl)(Cl)Cl)C/C1=C\c1ccccc1`, the TGI with HOP-18 NSCLC is 9.6 µM; in the test on LXFL 529 NSCLC, 3.38 µM; with DLD-1 colon it was 4.28 µM; in the test with DMS 114 small cell lung it was 3.19 µM; in the test on DMS 273 small cell lung, 2.38 µM.

As to `N#CC(c1ccc(Cl)cc1)c1cccc(C(C#N)c2ccc(Cl)cc2)n1` (stereo not drawn), the TGI in the test on LXFL 529 NSCLC is over 100 µM; in the test on DLD-1 colon, over 100 µM; with XF 498 CNS it was 26.2 µM.

With `c1ccc2cc(-c3cc(-c4cc(-c5ccc6ccccc6c5)on4)no3)ccc2c1`, the TGI in the test on MDA-N was over 100 µM.

For the compound `CN(C)C(=N)c1ccccc1`, the TGI with LXFL 529 NSCLC, in the test on XF 498 CNS, in the test on DMS 114 small cell lung and in the test with DMS 273 small cell lung was over 100 µM throughout.

For the compound `CC[C@@]1(O)C[C@H](OC2CC(N(C)C)C(O)C(C)O2)c2c(O)c3c(c(O)c2[C@H]1OC1CC(N(C)C)C(O)C(C)O1)C(=O)c1cccc(O)c1C3=O` (stereo partly drawn), in the test with MDA-N, the GI50 was under 0.01 µM; the TGI was 0.156 µM and 0.113 µM.

In the case of `O=C(O)c1ccccc1[Se][Se]c1ccccc1C(=O)O`, the TGI in the test on HOP-18 NSCLC, with RXF-631 renal, with DLD-1 colon, with XF 498 CNS, in the test with DMS 114 small cell lung and in the test on DMS 273 small cell lung was over 100 µM in each case.

`CCN(CCO)CC1CCCC2CCCCC21` (stereo not drawn) displayed a TGI with MDA-N of over 100 µM.

With `CC12CCC(O)CC1CCC1C2CCC2(C)C(C3=CC(=O)OC3)CCC12O` (stereo not drawn), the TGI in the test with MDA-N was 6.38 µM.

As to `Cn1cnc([N+](=O)[O-])c1Sc1nnc(-c2cccnc2)n1C`, the TGI in the test on MDA-N was 43.3 µM; in the test with HOP-18 NSCLC it was 35.6 µM; in the test with LXFL 529 NSCLC, 24.4 µM; in the test with DLD-1 colon, 40.5 µM; with XF 498 CNS, 44.8 µM; with DMS 114 small cell lung, over 49.2 µM. For the same compound, the TGI in the test with DMS 273 small cell lung is over 100 µM.

Regarding `O=C(COc1ccc(Br)cc1Br)N1N=C(c2ccc([N+](=O)[O-])o2)CC1(O)c1ccccc1` (stereo not drawn), the TGI amounted to 41 µM in the test with HOP-18 NSCLC; 21.6 µM with LXFL 529 NSCLC; 30.2 µM in the test with DLD-1 colon; 23.5 µM in the test with DMS 114 small cell lung; 32.5 µM in the test on DMS 273 small cell lung.

With `COC(=O)[C@@H]1[C@H](O)[C@H](C)[C@H](O)[C@@](C)(O)/C=C\C=C(C)C(=O)Nc2c(C)c(OC(C)=O)c3c(c2O)C(=O)C(C)=C2OCOC(=C23)C(C)=C[C@@](C)(O)[C@H](O)[C@@H](C)[C@H]1OC(C)=O`, the GI50 with HOP-18 NSCLC is 41.3 µM; with RXF-631 renal, > 100 µM and 39.8 µM and 36.4 µM; in the test on LXFL 529 NSCLC, 35.6 µM; with DLD-1 colon, 40.7 µM. For the same compound, the TGI is > 100 µM and 66.9 µM in the test on HOP-18 NSCLC; > 100 µM and 66.9 µM in the test on RXF-631 renal; > 100 µM and 66.9 µM in the test on LXFL 529 NSCLC; > 100 µM and 66.9 µM with DLD-1 colon; > 100 µM and 21.9 µM in the test on DMS 114 small cell lung; over 100 µM in the test with DMS 273 small cell lung.

Consider `O=C(O)CCc1coc2ccc(O)cc12`, for which the TGI in the test on HOP-18 NSCLC, in the test with LXFL 529 NSCLC, with DLD-1 colon, in the test on XF 498 CNS, in the test with DMS 114 small cell lung and in the test on DMS 273 small cell lung was over 100 µM throughout.

As to `Nc1ccccc1SC(C[N+](=O)[O-])c1ccc2c(c1)OCO2` (stereo not drawn), the TGI with MDA-N was 4.63 µM.

`COc1ccc2c3c1C(=O)CCCC3CO2` (stereo not drawn): the TGI in the test on LXFL 529 NSCLC, in the test on DLD-1 colon, in the test on XF 498 CNS, with DMS 114 small cell lung and in the test on DMS 273 small cell lung was over 100 µM throughout.

The compound `O=C(O)CSc1ccc([N+](=O)[O-])cc1[N+](=O)[O-]` registered a TGI in the test with MDA-N of over 100 µM.

As to `C=C1C(=O)C23CC1CCC2C12CO[C@@H]4OCC(C)(CC[C@@H]1OC3=O)C42` (stereo partly drawn), the TGI amounted to 15.5 µM in the test on HOP-18 NSCLC; 47.8 µM with RXF-631 renal; 9.39 µM in the test on LXFL 529 NSCLC; 3.41 µM in the test with XF 498 CNS; 4.16 µM in the test with DMS 114 small cell lung; 19.6 µM with DMS 273 small cell lung.

On to `COc1ccccc1C12OC(=O)C1(C)Oc1ccccc1C2=O` (stereo not drawn), for which the TGI in the test on RXF-631 renal is over 100 µM; in the test with LXFL 529 NSCLC, over 100 µM; with DLD-1 colon, over 100 µM; in the test on XF 498 CNS, over 100 µM; in the test on DMS 114 small cell lung it was over 100 µM; in the test with DMS 273 small cell lung, 86.4 µM.
